Test results taken from US20070155679A1, “USE OF BR[…] THE TREATMENT OF […] ASSOCIATED WITH H[…] NOVEL MEDICAMENT COMBINATIONS” (priority 2000, published 2007).

Test system: hypertrophic cardiomyopathy
Experiment: Cat with severe hypertrophic cardiomyopathy treated with cilobradine
Assay type: in vivo
Details: 0.3 mg/kg per os, 2x daily
Excerpt: The new use of the bradycardiac substances according to the invention was investigated with the if channel blocker cilobradine by way of example, using the following method:
The hypertrophic cardiomyopathy in the cat serves as a model for the corresponding disease in humans (Kittleson et al., Circulation 91, 3172-3180 (1999)).

For `COc1ccc(CCN2CCC[C@H](CN3CCc4cc(OC)c(OC)cc4CC3=O)C2)cc1OC` [cilobradine], the “clinical symptoms (relief from pain, normal ECG, return of normal physiological activity pattern)” value (cat with severe hypertrophic cardiomyopathy) was “significant improvement in clinical symptoms” and the “myocardial hypertrophy at follow-up” value (cat, follow-up after one year and after about 2 years' treatment) was “regression in myocardial hypertrophy”.
